Test results as given in ChEMBL document CHEMBL1125764, “Muscarinic receptor binding profile of para-substituted caramiphen analogues” (J Med Chem, 1991).

Columns and labels:
[1] = biological target: T1, Muscarinic acetylcholine receptor M2 (Rattus norvegicus, UniProt P10980); assay: Displacement of [3H](-)-quinuclidinyl benzilate(QNB) from muscarinic (M2) receptor in rat heart homogenates; assay type: tissue-based
T1 sequence (P10980 whole entry): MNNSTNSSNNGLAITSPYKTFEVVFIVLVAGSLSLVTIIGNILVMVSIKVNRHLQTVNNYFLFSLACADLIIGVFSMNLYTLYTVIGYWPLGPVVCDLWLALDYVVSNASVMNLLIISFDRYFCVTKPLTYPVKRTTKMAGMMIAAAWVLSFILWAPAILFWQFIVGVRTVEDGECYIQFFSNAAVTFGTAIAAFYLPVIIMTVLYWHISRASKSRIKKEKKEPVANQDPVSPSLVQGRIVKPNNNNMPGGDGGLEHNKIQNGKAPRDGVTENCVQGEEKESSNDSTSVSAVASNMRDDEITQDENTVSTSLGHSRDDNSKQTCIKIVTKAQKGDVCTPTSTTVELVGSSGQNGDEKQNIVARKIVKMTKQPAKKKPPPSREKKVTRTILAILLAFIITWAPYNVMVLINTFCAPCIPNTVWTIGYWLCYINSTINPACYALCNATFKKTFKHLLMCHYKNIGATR

[2] = biological target: T2, Muscarinic acetylcholine receptor M1 (Rattus norvegicus, UniProt P08482); parameters: species or system Cortex
T2 sequence (P08482 whole entry): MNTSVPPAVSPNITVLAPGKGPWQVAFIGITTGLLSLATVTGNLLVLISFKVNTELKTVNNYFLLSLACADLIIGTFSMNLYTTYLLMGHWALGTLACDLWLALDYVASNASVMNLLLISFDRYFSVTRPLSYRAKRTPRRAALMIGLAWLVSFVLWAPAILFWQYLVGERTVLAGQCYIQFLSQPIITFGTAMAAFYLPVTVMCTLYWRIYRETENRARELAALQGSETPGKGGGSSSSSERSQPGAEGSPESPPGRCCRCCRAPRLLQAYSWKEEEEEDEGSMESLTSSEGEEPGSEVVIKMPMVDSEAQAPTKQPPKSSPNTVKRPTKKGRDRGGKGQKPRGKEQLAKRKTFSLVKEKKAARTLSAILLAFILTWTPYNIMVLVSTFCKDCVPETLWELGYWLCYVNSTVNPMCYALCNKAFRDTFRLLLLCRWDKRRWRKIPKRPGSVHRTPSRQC

Compound	Ki [1]	Ki [2]
CCN(CC)CCOC(=O)C1(c2ccc([N+](=O)[O-])cc2)CCCC1	390 nM	5.52 nM
CCN(CC)CCOC(=O)C1(C2CCCCC2)CCCCC1 [DICYCLOMINE]	47.3 nM	
CCN(CC)CCOC(=O)C1(c2ccc(-n3cnnn3)cc2)CCCC1	432 nM	14.5 nM
CCN(CC)CCOC(=O)C1(c2ccccc2)CCCC1	31.7 nM	1.21 nM
CCN(CC)CCOC(=O)C1(c2ccc(N)cc2)CCCC1	116 nM	20 nM
CCN(CC)CCOC(=O)C1(c2ccc(N3CCCC3)cc2)CCCC1	551 nM	151 nM
CCN(CC)CCOC(=O)C1(c2ccc(I)cc2)CCCC1	123 nM	2.11 nM
CCN(CC)CCOC(=O)C1(c2ccc(C#N)cc2)CCCC1	213 nM	8.12 nM
